{"source": "patent US11628172B2", "about": "“Methods of treating chronic lymphocytic leukemia using 2-(2,6-dioxopiperidin-3-yl)-4-((2-fluoro-4-((3-morpholinoazetidin-1-yl)methyl)benzyl)amino)isoindoline-1,3-dione” (Celgene Corporation, priority 2019, dated 2023)", "test_system": "primary CLL cells from patient-derived blood (CD5+CD19+ tumor cells)", "assay": "Compound 1 in combination with obinutuzumab in B-cell CLL patient cells (ex vivo co-culture, flow cytometry, Caspase3)", "format": "cell-based, human", "details": "144 h", "procedure": "Obinutuzumab (GA101) is a humanized, glycoengineered type 2 antibody targeted against CD20. […] The effect of treatment with Compound 1 in combination with obinutuzumab on the proliferation and survival of CLL B cells was assessed utilizing an ex vivo model where primary CLL cells from patient-derived blood were stimulated to proliferate with 10% fetal bovine serum (FBS), 5 ng/mL recombinant human interleukine-4 (rh IL-4), 10 ng/mL recombinant human interleukine-10 (rh IL-10) and co-cultured with fibroblast expressing surface CD154 (CD40L) in a 96 well plate format.\nPeripheral blood mononuclear cells (PBMCs) from CLL patients (Table 7) containing 52%-86% of CD5^+CD19^+ tumor cells were cultured at a density of 0.06-0.1×10^6 cells/well on a monolayer of CD154-expressing fibroblasts at a density of 0.09×10^6 cells/well in 96-well plates in RPMI 1640 medium supplemented with 10% FBS, 5 ng/mL rh IL-4 and 10 ng/mL rh IL-10. The cells were treated with vehicle control (0.1% DMSO) or increasing concentrations of Compound 1 ranging from 0.0001 to 1 μM and GA101 at concentrations ranging from 8 ng/mL to 5 ug/mL across all the different concentrations of Compound 1. After 144 h of treatment with both the agents, flow cytometric analysis was used to determine the number of tumor cells that were viable or apoptotic.\nThe tumor cell count was assessed by staining the patient PBMCs in each condition with tumor cell surface markers CD5 & CD19 along with Live/Dead fixable dye to exclude the dead cells and followed by intracellular staining for Caspase3 antibody to identify the apoptotic cells and was measured by flow cytometry (Attune NxT, Thermo Fisher). The live tumor cell count for each condition was calculated by normalizing to the precision count beads added to each sample.\nThe live tumor cell count was then normalized to the DMSO control (considered as 100% viable) to calculate the percentage of viable cells remaining after treatment. The normalized percentage of tumor cells was then represented as a heat map using Graph Pad Prism 8.0.0 to indicate the degree of tumor toxicity for each of the combinations (FIG. 1). Based on the data shown in FIG. 1, synergy/additivity calculations were performed using the HSA and Bliss Independence Model.\nFor apoptosis analysis, the percentage of apoptosis combining both “early” (Caspase 3 positive and Live-Dead fixable dye negative) and “late” apoptosis (Caspase 3 and Live-Dead fixable dye positive) cell gates subtracting the baseline DMSO value was graphed using GraphPad Prism 8.0.0.0. The Ymax (maximal percentage of apoptosis achieved) values from apoptosis curves were calculated by performing a nonlinear regression curve fitting using log(agonist) vs. normalized response—Variable slope analysis and identifying the maximum value on GraphPad Prism 8.0.0 (Table 8)."}
{"substance": "Obinutuzumab: humanized, glycoengineered type 2 antibody targeted against CD20", "values": [{"measurement": "induction of apoptosis (in words)", "setting": "CLL patient cells Pt 11-14, Table 8", "value": "induced apoptosis alone"}, {"measurement": "Ymax of Pt 11 (%)", "setting": "Pt 11, single agent (Cpd1 DRC with DMSO, or obinutuzumab alone), apoptosis (Caspase 3), DMSO baseline subtracted", "value": 27.98, "unit": "%"}, {"measurement": "Ymax of Pt 12 (%)", "setting": "Pt 12, single agent (Cpd1 DRC with DMSO, or obinutuzumab alone), apoptosis (Caspase 3), DMSO baseline subtracted", "value": 24.91, "unit": "%"}, {"measurement": "Ymax of Pt 13 (%)", "setting": "Pt 13, single agent (Cpd1 DRC with DMSO, or obinutuzumab alone), apoptosis (Caspase 3), DMSO baseline subtracted", "value": 35.87, "unit": "%"}, {"measurement": "Ymax of Pt 14 (%)", "setting": "Pt 14, single agent (Cpd1 DRC with DMSO, or obinutuzumab alone), apoptosis (Caspase 3), DMSO baseline subtracted", "value": 25.82, "unit": "%"}]}
